Tests used:
Mtb proteasome = target: T1, Mtb proteasome (Mycobacterium tuberculosis, UniProt P9WHT9); experiment: biochemical; assay type: biochemical; conditions: for IC50: 50 µM Suc-LLVY-AMC, 30 min preincubation, 37 °C, triplicate, read-out: IC50 against the Mtb proteasome; for Hill Coefficient: from IC50 curve, Mtb proteasome
T1 construct: made in house

ß5i of IP = conditions: cited from earlier work; for RA at 10 µM against ß5i of IP: residual activity of β5i in the presence of 10 μM compound; for IC50: read-out: IC50 against ß5i of IP; for Ki: read-out: Ki against ß5i of IP

T1 sequence (P9WHT9 whole entry, looked up): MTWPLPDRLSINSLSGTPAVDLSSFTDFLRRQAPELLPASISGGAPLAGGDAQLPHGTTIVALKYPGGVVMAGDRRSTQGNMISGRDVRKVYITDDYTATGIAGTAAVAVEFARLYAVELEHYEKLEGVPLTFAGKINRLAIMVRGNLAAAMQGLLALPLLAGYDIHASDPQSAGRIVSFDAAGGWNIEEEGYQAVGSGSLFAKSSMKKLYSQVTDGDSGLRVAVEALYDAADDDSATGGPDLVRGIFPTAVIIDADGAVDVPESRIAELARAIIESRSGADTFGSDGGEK

Compound | RA at 100 µM against Mtb (Mtb proteasome) | RA at 10 µM against ß5i of IP (ß5i of IP) | further results
Cc1c(CCC(=O)O)c(=O)oc2cc3c(cc12)C(c1ccccc1)CO3 (racemic) [Compound 91] | 95% | 94% | 
Cc1c(CCC(=O)ON2C(=O)CCC2=O)c(=O)oc2cc3occ(C4CCCCC4)c3cc12 [Compound 12] |  |  | IC50 (Mtb proteasome): 5 ± 2 µM; Hill Coefficient (Mtb proteasome): 1.05; IC50 (ß5i of IP): 1.8 µM
Cc1c(CC(=O)N(C)CC#N)c(=O)oc2cc3occ(C4CCCCC4)c3cc12 [Compound 58] | 100% | 101% | 
Cc1c(CC(=O)NCC#N)c(=O)oc2cc3occ(-c4ccco4)c3cc12 [Compound 64] | 91% | 98% | 
Cc1c(CCC(=O)O)c(=O)oc2cc3occ(-c4ccc(C(=O)O)cc4)c3cc12 [Compound 3] |  | 53% | IC50 (Mtb proteasome): 31 ± 5 µM; Hill Coefficient (Mtb proteasome): 1.22
Cc1c(CCC(=O)ON2C(=O)CCC2=O)c(=O)oc2cc3occ(-c4ccc(Br)cc4)c3cc12 [Compound 67] | 96% |  | IC50 (ß5i of IP): 1.9 ± 0.9 µM
COc1ccc(-c2coc3cc4oc(=O)c(CCC(=O)O)c(C)c4cc23)cc1 [Compound 17] | 100% | 84% | 
Cc1c(CCC(=O)O)c(=O)oc2cc3occ(-c4ccco4)c3cc12 [Compound 22] | 55% |  | Ki (ß5i of IP): 116 ± 27 µM
Cc1cc(-c2coc3cc4oc(=O)c(CC(=O)N(C)CC#N)c(C)c4cc23)c(C)s1 [Compound 55] | 88% | 103% | 
Cc1coc2cc3oc(=O)c(CCC(=O)NCC#N)c(C)c3cc12 [Compound 47] | 95% | 105% | 
Cc1c(CCC(=O)ON2C(=O)CCC2=O)c(=O)oc2c(C)c3occ(-c4ccccc4)c3cc12 [Compound 79] | 100% |  | IC50 (ß5i of IP): 3.26 ± 1.49 µM
Cc1c(NC(=O)CC#N)c(=O)oc2cc3occ(-c4ccccc4)c3cc12 [Compound 85] | 93% | 115% | 
Cc1c(CCC(=O)N(C)CC#N)c(=O)oc2cc3occ(C(C)(C)C)c3cc12 [Compound 7] |  | 100% | IC50 (Mtb proteasome): 8 ± 5 µM; Hill Coefficient (Mtb proteasome): 0.42
Cc1c(CCC(=O)NCC#N)c(=O)oc2cc3occ(-c4ccc(Br)cc4)c3cc12 [Compound 46] | 82% | 107% | 
Cc1c(CCC(=O)N(C)CC#N)c(=O)oc2cc3occ(-c4ccccc4)c3cc12 [Compound 40] | 100% | 92% | 
Cc1c(CCC(=O)O)c(=O)oc2cc3occ(-c4ccccc4)c3cc12 [Compound 16] | 72% |  | inhibition of the Mtb proteasome (Mtb proteasome): did not inhibit; IC50 (ß5i of IP): 1.6 µM; Ki (ß5i of IP): 1.6 ± 0.7 µM
Cc1c(CCC(=O)O)c(=O)oc2c(C)c3occ(-c4ccc(Cl)cc4)c3cc12 [Compound 38] | 47% | 89% | 
Cc1c(CC(=O)NCC#N)c(=O)oc2cc3occ(C4CCCCC4)c3cc12 [Compound 65] | 91% | 99% | 
Cc1c(CC(=O)O)c(=O)oc2cc3occ(C(C)(C)C)c3cc12 [Compound 28] | 97% | 85% | 
COc1cccc(-c2coc3cc4oc(=O)c(CCC(=O)ON5C(=O)CCC5=O)c(C)c4cc23)c1 [Compound 69] | 72% |  | IC50 (ß5i of IP): 0.93 ± 0.57 µM
Cc1c(CCc2nsc(=O)o2)c(=O)oc2cc3occ(-c4ccccc4)c3cc12 [Compound 90] | 69% |  | IC50 (ß5i of IP): 0.2 ± 0.04 µM
Cc1c(CCC(=O)O)c(=O)oc2c(C)c3occ(-c4ccc(C(=O)O)cc4)c3cc12 [Compound 39] | 98% |  | 
Cc1c(CC(=O)O)c(=O)oc2cc3occ(-c4ccc(Br)cc4)c3cc12 [Compound 4] |  |  | IC50 (Mtb proteasome): 4 ± 3 µM; Hill Coefficient (Mtb proteasome): 1.59; Ki (ß5i of IP): 12.7 µM
Cc1c(CCC(=O)O)c(=O)oc2c(C)c3occ(-c4ccccc4)c3cc12 [Compound 35] | 100% |  | Ki (ß5i of IP): 43.1 ± 15 µM
Cc1cc(-c2coc3cc4oc(=O)c(CCC(=O)N(C)CC#N)c(C)c4cc23)c(C)s1 [Compound 43] | 55% | 107% | 
C=CC(=O)Nc1c(C)c2cc3c(-c4ccccc4)coc3cc2oc1=O [Compound 86] | 95% |  | IC50 (ß5i of IP): 20.5 ± 1.36 µM
COc1cccc(-c2coc3c(C)c4oc(=O)c(CCC(=O)O)c(C)c4cc23)c1 [Compound 36] | 87% | 72% | 
Cc1c(CC(=O)N(C)CC#N)c(=O)oc2cc3occ(-c4ccco4)c3cc12 [Compound 56] | 53% | 103% | 
Cc1coc2cc3oc(=O)c(CC(=O)NCC#N)c(C)c3cc12 [Compound 62] | 60% |  | 
Cc1c(CN)c(=O)oc2cc3occ(-c4ccccc4)c3cc12 [Compound 80] | 55% |  | 
